Where a name gives a salt, the structure may show the parent alone. Read-outs that look alike come from different tables or passages of the source.
Columns and labels:
HIV-1 RT = HIV-1 RT (Human immunodeficiency virus type 1 group M subtype B, UniProt P03366); test: HIV Reverse Transcriptase Assay: Inhibitor IC50 Determination; format: biochemical
Procedure: HIV Reverse Transcriptase Assay: Inhibitor IC50 Determination
HIV-1 RT assay was carried out in 96-well Millipore MultiScreen MADVNOB50 plates using purified recombinant enzyme and a poly(rA)/oligo(dT)16 template-primer in a total volume of 50 μL. The assay constituents were 50 mM Tris/HCl, 50 mM NaCl, 1 mM EDTA, 6 mM MgCl2, 5 μM dTTP, 0.15 μCi [^3H] dTTP, 5 μg/ml poly (rA) pre annealed to 2.5 μg/ml oligo (dT)16 and a range of inhibitor concentrations in a final concentration of 10% DMSO. Reactions were initiated by adding 4 nM HIV-1 RT and after incubation at 37° C. for 30 min, they were stopped by the addition of 50 μl ice cold 20% TCA and allowed to precipitate at 4° C. for 30 min. The precipitates were collected by applying vacuum to the plate and sequentially washing with 3×200 μl of 10% TCA and 2×200 μl 70% ethanol. Finally, the plates were dried and radioactivity counted in a Packard TopCounter after the addition of 25 μl scintillation fluid per well. IC50's were calculated by plotting % inhibition versus log10 inhibitor concentrations.

HIV = test: Anti-viral Assay (method of Pauwels et al.); format: cell-based; conditions: Human immunodeficiency virus 1
Procedure: Anti-viral assays were carried out by the method described by R. E. Pauwels et al. J. Virol. Methods 1988 20(4):309–322.

[1] = purified recombinant enzyme, poly(rA)/oligo(dT)16 template-primer, 37° C. 30 min, read-out: RT inhibition

SMILES	melting point [°C]	other results
CCC(=O)NS(=O)(=O)c1ccc(NC(=O)Cc2ccc(Br)c(Oc3cc(Cl)cc(C#N)c3)c2F)c(Cl)c1 [Compound I-63, 2-[4-Bromo-3-(3-chloro-5-cyano-phenoxy)-2-fluoro-phenyl]-N-(2-chloro-4-propionylsulfamoyl-phenyl)-acetamide; sodium salt]	–	IC50 (HIV-1 RT): 5.8 nM
Cc1ccc(CC(=O)Nc2ccc(S(N)(=O)=O)cc2Cl)c(F)c1Oc1cc(Cl)cc(C#N)c1 [Compound I-83, 2-[3-(3-Chloro-5-cyano-phenoxy)-2-fluoro-4-methyl-phenyl]-N-(2-chloro-4-sulfamoyl-phenyl)-acetamide]	228.9 to 230.6	IC50 (HIV-1 RT; [1]): 8.1 nM; EC50 (HIV): 0.9 nM
Cc1ccc(CC(=O)Nc2ccc(S(N)(=O)=O)cc2Cl)c(F)c1Oc1cc(C#N)cc(C(F)F)c1 [Compound I-84, N-(2-Chloro-4-sulfamoyl-phenyl)-2-[3-(3-cyano-5-difluoromethyl-phenoxy)-2-fluoro-4-methyl-phenyl]-acetamide]	218 to 218.7	IC50 (HIV-1 RT; [1]): 14 nM; EC50 (HIV): 0.4 nM
CC(C)[C@H](N)C(=O)NS(=O)(=O)c1ccc(NC(=O)Cc2ccc(Cl)c(Oc3cc(Cl)cc(C#N)c3)c2F)c(Cl)c1.[Na] [Compound I-127, N-[4-((S)-2-Amino-3-methyl-butyrylsulfamoyl)-2-chloro-phenyl]-2-[4-chloro-3-(3-chloro-5-cyano-phenoxy)-2-fluoro-phenyl]-acetamide; sodium salt]	219.4 to 220.2	IC50 (HIV-1 RT): 5.9 nM
CCCC(=O)NS(=O)(=O)c1ccc(NC(=O)Cc2ccc(Cl)c(Oc3cc(Cl)cc(C#N)c3)c2F)c(Cl)c1.[Na] [Compound I-138, N-(4-Butyrylsulfamoyl-2-chloro-phenyl)-2-[4-chloro-3-(3-chloro-5-cyano-phenoxy)-2-fluoro-phenyl]-acetamide; sodium salt]	157.2 to 157.9	IC50 (HIV-1 RT): 4.5 nM
Cc1cc(S(=O)(=O)CCCO)ccc1NC(=O)Cc1ccc(C)c(Oc2cc(Cl)cc(C#N)c2)c1 [Compound I-157, 2-[3-(3-Chloro-5-cyano-phenoxy)-4-methyl-phenyl]-N-[4-(3-hydroxy-propane-1-sulfonyl)-2-methyl-phenyl]-acetamide]	78.9 to 79.5	–
Cc1cc(N2CCCCS2(=O)=O)ccc1NC(=O)Cc1ccc(C)c(Oc2cc(Cl)cc(C#N)c2)c1 [Compound I-158, 2-[3-(3-Chloro-5-cyano-phenoxy)-4-methyl-phenyl]-N-[4-(1,1-dioxo-1λ^6-[1,2]thiazinan-2-yl)-2-methyl-phenyl]-acetamide]	84.3 to 85.6	–
Cc1cc(C(=O)CN2CCN(C)CC2)ccc1NC(=O)Cc1ccc(C)c(Oc2cc(Cl)cc(C#N)c2)c1 [Compound I-159, 2-[3-(3-Chloro-5-cyano-phenoxy)-4-methyl-phenyl]-N-{2-methyl-4-[2-(4-methyl-piperazin-1-yl)-acetyl]-phenyl}-acetamide]	62.3 to 64.1	–
Cc1cc(N2CC[S+]([O-])CC2)ccc1NC(=O)Cc1ccc(C)c(Oc2cc(Cl)cc(C#N)c2)c1 [Compound I-160, 2-[3-(3-Chloro-5-cyano-phenoxy)-4-methyl-phenyl]-N-[2-methyl-4-(1-oxo-1λ^4-thiomorpholin-4-yl)-phenyl]-acetamide]	181.3 to 182.1	–
Cc1cc(N2CCS(=O)(=O)CC2)ccc1NC(=O)Cc1ccc(C)c(Oc2cc(Cl)cc(C#N)c2)c1 [Compound I-161, 2-[3-(3-Chloro-5-cyano-phenoxy)-4-methyl-phenyl]-N-[4-(1,1-dioxo-1λ^6-thiomorpholin-4-yl)-2-methyl-phenyl]-acetamide]	64.8 to 65.4	–
CCC(=O)N(C)S(=O)(=O)c1ccc(NC(=O)Cc2ccc(Cl)c(Oc3cc(Cl)cc(C#N)c3)c2F)c(Cl)c1 [Compound I-162, 2-[4-Chloro-3-(3-chloro-5-cyano-phenoxy)-2-fluoro-phenyl]-N-[2-chloro-4-(methyl-propionyl-sulfamoyl)-phenyl]-acetamide]	198.2 to 200.6	–
CNS(=O)(=O)c1ccc(NC(=O)Cc2ccc(Cl)c(Oc3cc(Cl)cc(C#N)c3)c2F)c(Cl)c1 [Compound I-168, 2-[4-Chloro-3-(3-chloro-5-cyano-phenoxy)-2-fluoro-phenyl]-N-(2-chloro-4-methylsulfamoyl-phenyl)-acetamide]	199.1 to 200	–
Cc1cc(N2CCCS2(=O)=O)ccc1NC(=O)Cc1ccc(C)c(Oc2cc(Cl)cc(C#N)c2)c1 [Compound I-170, 2-[3-(3-Chloro-5-cyano-phenoxy)-4-methyl-phenyl]-N-[4-(1,1-dioxo-1λ^6-isothiazolidin-2-yl)-2-methyl-phenyl]-acetamide]	182.5 to 184.6	–
COCC(=O)N(C)S(=O)(=O)c1ccc(NC(=O)Cc2ccc(Cl)c(Oc3cc(Cl)cc(C#N)c3)c2F)c(Cl)c1 [Compound I-171, 2-[4-Chloro-3-(3-chloro-5-cyano-phenoxy)-2-fluoro-phenyl]-N-{2-chloro-4-[(2-methoxy-acetyl)-methyl-sulfamoyl]-phenyl}-acetamide]	183.2 to 185.5	–
COCCC(=O)N(C)S(=O)(=O)c1ccc(NC(=O)Cc2ccc(Cl)c(Oc3cc(Cl)cc(C#N)c3)c2F)c(Cl)c1 [Compound I-172, 2-[4-Chloro-3-(3-chloro-5-cyano-phenoxy)-2-fluoro-phenyl]-N-{2-chloro-4-[(3-methoxy-propionyl)-methyl-sulfamoyl]-phenyl}-acetamide]	199.3 to 203	–
CCOC(=O)C(=O)Nc1ccc(NC(=O)Cc2ccc(C)c(Oc3cc(Cl)cc(C#N)c3)c2)c(C)c1 [Compound I-178, N-(4-{2-[3-(3-Chloro-5-cyano-phenoxy)-4-methyl-phenyl]-acetylamino}-3-methyl-phenyl)-oxalamic acid ethyl ester]	182.5 to 183.9	–
CCc1ccc(CC(=O)Nc2ccc(S(N)(=O)=O)cc2C)c(F)c1Oc1cc(C#N)cc(C(F)F)c1 [Compound I-180, 2-[3-(3-Cyano-5-difluoromethyl-phenoxy)-4-ethyl-2-fluoro-phenyl]-N-(2-methyl-4-sulfamoyl-phenyl)-acetamide]	237.6 to 238.4	IC50 (HIV-1 RT; [1]): 9.1 nM
Cc1cc(CC(=O)Nc2ccc(S(N)(=O)=O)cc2)cc(Oc2cc(Cl)cc(C#N)c2)c1C [Compound I-182, 2-[3-(3-Chloro-5-cyano-phenoxy)-4,5-dimethyl-phenyl]-N-(4-sulfamoyl-phenyl)-acetamide]	229.7 to 231.3	–
Cc1cc(S(N)(=O)=O)ccc1NC(=O)Cc1cc(C)c(C)c(Oc2cc(Cl)cc(C#N)c2)c1 [Compound I-183, 2-[3-(3-Chloro-5-cyano-phenoxy)-4,5-dimethyl-phenyl]-N-(2-methyl-4-sulfamoyl-phenyl)-acetamide]	230.8 to 233.4	–
Cc1cc(CC(=O)Nc2ccc(S(N)(=O)=O)cc2Cl)cc(Oc2cc(Cl)cc(C#N)c2)c1C [Compound I-184, 2-[3-(3-Chloro-5-cyano-phenoxy)-4,5-dimethyl-phenyl]-N-(2-chloro-4-sulfamoyl-phenyl)-acetamide]	224.3 to 225.7	–
Cc1cc(S(N)(=O)=O)ccc1NC(=O)Cc1ccc(Cl)c(Oc2cc(Br)cc(C#N)c2)c1F [Compound I-185, 2-[3-(3-Bromo-5-cyano-phenoxy)-4-chloro-2-fluoro-phenyl]-N-(2-methyl-4-sulfamoyl-phenyl)-acetamide]	246 to 250.6	–
Cc1cc(S(N)(=O)=O)ccc1NC(=O)Cc1ccc(Cl)c(Oc2cc(C#N)cc(C#CCO)c2)c1F [Compound I-186, 2-{4-Chloro-3-[3-cyano-5-(3-hydroxy-prop-1-ynyl)-phenoxy]-2-fluoro-phenyl}-N-(2-methyl-4-sulfamoyl-phenyl)-acetamide]	170.1 to 173.2	–
Cc1cc(S(N)(=O)=O)ccc1NC(=O)Cc1ccc(Cl)c(Oc2cc(C#N)cc(C#CCN(C)C)c2)c1F [Compound I-187, 2-{4-Chloro-3-[3-cyano-5-(3-dimethylamino-prop-1-ynyl)-phenoxy]-2-fluoro-phenyl}-N-(2-methyl-4-sulfamoyl-phenyl)-acetamide]	156.2 to 158.2	–
N#Cc1cc(Cl)cc(Oc2c(Cl)ccc(CC(=O)Nc3ccc(S(=O)(=O)NC(=O)CCC(=O)O)cc3Cl)c2F)c1 [Compound I-188, 4-(3-Chloro-4-{2-[4-chloro-3-(3-chloro-5-cyano-phenoxy)-2-fluoro-phenyl]-acetylamino}-benzenesulfonylamino)-4-oxo-butyric acid]	143.4 to 144	–
COc1ccc(CC(=O)Nc2ccc(S(N)(=O)=O)cc2Cl)c(F)c1Oc1cc(Cl)cc(C#N)c1 [Compound I-190, 2-[3-(3-Chloro-5-cyano-phenoxy)-2-fluoro-4-methoxy-phenyl]-N-(2-chloro-4-sulfamoyl-phenyl)-acetamide]	212 to 212.8	–
COc1ccc(CC(=O)Nc2ccc(S(N)(=O)=O)cc2C)c(F)c1Oc1cc(Cl)cc(C#N)c1 [Compound I-191, 2-[3-(3-Chloro-5-cyano-phenoxy)-2-fluoro-4-methoxy-phenyl]-N-(2-methyl-4-sulfamoyl-phenyl)-acetamide]	239.9 to 240.8	–
